Source: ChEMBL document CHEMBL5620398, “Membrane-active substituted triazines as antibacterial agents against Staphylococcus aureus with potential for low drug resistance and broad activity” (Eur J Med Chem, 2023)
In brackets after ≈: the same amount, converted by molar mass. Activity calls are given as the source filed them. No cut-off for these calls is given here.

Assays:
Enterococcus faecalis [1] = assay: Antibacterial activity against Enterococcus faecalis assessed as inhibition of bacterial growth by two-fold serial broth dilution method; assay type: functional
Bacillus subtilis = assay: Antibacterial activity against Bacillus subtilis assessed as inhibition of bacterial growth by two-fold serial broth dilution method; assay type: functional
Listeria = assay: Antibacterial activity against Listeria sps. assessed as inhibition of bacterial growth by two-fold serial broth dilution method; assay type: functional
Staphylococcus aureus [2] = assay: Antibacterial activity against Staphylococcus aureus assessed as inhibition of bacterial growth by two-fold serial broth dilution method; assay type: functional
Escherichia coli = assay: Antibacterial activity against Escherichia coli assessed as inhibition of bacterial growth by two-fold serial broth dilution method; assay type: functional
Salmonella enterica = assay: Antibacterial activity against Salmonella enterica assessed as inhibition of bacterial growth by two-fold serial broth dilution method; assay type: functional
[3] = tested on: Acinetobacter calcoaceticus; assay: Antibacterial activity against Acinetobacter calcoaceticus assessed as inhibition of bacterial growth by two-fold serial broth dilution method; assay type: functional
Serratia marcescens = assay: Antibacterial activity against Serratia marcescens assessed as inhibition of bacterial growth by two-fold serial broth dilution method; assay type: functional
Enterococcus faecalis [4] = assay: Bacteriostatic activity against Enterococcus faecalis assessed as inhibition of bacterial growth; assay type: functional
Staphylococcus aureus [5] = assay: Bactericidal activity against Staphylococcus aureus assessed as bacterial killing; assay type: functional
Enterococcus faecalis [6] = assay: Ratio of MBC to MIC for Enterococcus faecalis; assay type: functional
Staphylococcus aureus [7] = assay: Ratio of MBC to MIC for Staphylococcus aureus; assay type: functional
Staphylococcus aureus [8] = assay: Bactericidal activity against Staphylococcus aureus assessed as decrease in bacterial absorbance at MIC measured after 1 hr by time-kill analysis; assay type: functional, organism-based
Staphylococcus aureus [9] = assay: Bactericidal activity against Staphylococcus aureus assessed as decrease in bacterial absorbance at 1/2XMIC measured after 2 hrs by time-kill analysis; assay type: functional, organism-based
Staphylococcus aureus [10] = assay: Bactericidal activity against Staphylococcus aureus assessed as inhibition of bacterial growth at 1/4XMIC measured for 3 hrs by time-kill analysis; assay type: functional, organism-based
Staphylococcus aureus [11] = assay: Antibacterial activity against Staphylococcus aureus assessed as inhibition of bacterial growth measured after 11 passages; assay type: functional, organism-based
Staphylococcus aureus [12] = assay: Anti-biofilm activity against Staphylococcus aureus assessed as inhibition of biofilm formation at MIC by crystal violet assay; assay type: functional
Staphylococcus aureus [13] = assay: Anti-biofilm activity against Staphylococcus aureus assessed as inhibition of biofilm formation at 1/2XMIC by crystal violet assay; assay type: functional
Staphylococcus aureus [14] = assay: Anti-biofilm activity against Staphylococcus aureus assessed as inhibition of biofilm formation at 1/8XMIC by crystal violet assay; assay type: functional
Staphylococcus aureus [15] = assay: Anti-biofilm activity against Staphylococcus aureus assessed as inhibition of biofilm formation at 1/16XMIC by crystal violet assay; assay type: functional
Cell membrane [16] = assay: Induction of Outer membrane disruption in Staphylococcus aureus assessed as […] in fluorescence intensity at MIC to 4X MIC by NPN dye based fluorescence analysis
Cell membrane [17] = assay: Induction of Outer membrane disruption in Staphylococcus aureus assessed as […] in fluorescence intensity at MIC to 4X MIC measured for 5 to 30 mins by NPN dye based fluorescence analysis; conditions: time 5-30 min, TDE = time-dependent effect
Cell membrane [18] = assay: Induction of Inner membrane disruption in Staphylococcus aureus assessed as increase in fluorescence intensity at MIC to 4XMIC by EtBr dye based fluorescence analysis; assay type: cell membranes
Cell membrane [19] = assay: Induction of Inner membrane disruption in Staphylococcus aureus assessed as increase in fluorescence intensity at MIC to 4XMIC measured for 5 to 30 mins by EtBr dye based fluorescence analysis; assay type: cell membranes; conditions: time 5-30 min, TDE = time-dependent effect
Cell membrane [20] = assay: Induction of cell membrane damage in Staphylococcus aureus assessed as increase in leaked protein content at MIC to 8XMIC; assay type: cell membranes
Cell membrane [21] = assay: Induction of cell membrane damage in Staphylococcus aureus assessed as loss of bacterial metabolic activity at MIC to 8XMIC by Alamar blue dye based fluorescence analysis; assay type: cell membranes
Cell membrane [22] = assay: Induction of cell membrane damage in Staphylococcus aureus assessed as broken cell membrane at 2XMIC by SEM analysis; assay type: cell membranes
Cell membrane [23] = assay: Induction of cell membrane damage in Staphylococcus aureus assessed as corrugation with leakage of cellular contents at 2XMIC by SEM analysis; assay type: cell membranes
HEK293 [24] = assay: Cytotoxicity against human HEK293 cells at 0.01 uM by MTT assay; assay type: toxicity, cell-based; conditions: hek293, 0.01 µM
HEK293 [25] = assay: Cytotoxicity against human HEK293 cells at 0.1 uM by MTT assay; assay type: toxicity, cell-based; conditions: hek293, 0.1 µM
HEK293 [26] = assay: Cytotoxicity against human HEK293 cells at 1 uM by MTT assay; assay type: toxicity, cell-based; conditions: hek293, 1 µM
HEK293 [27] = assay: Cytotoxicity against human HEK293 cells at 10 uM by MTT assay; assay type: toxicity, cell-based; conditions: hek293, 10 µM
HEK293 [28] = assay: Cytotoxicity against human HEK293 cells at 100 uM by MTT assay; assay type: toxicity, cell-based; conditions: hek293, 100 µM
Albumin [29] = molecular target: T1, Albumin (Homo sapiens, UniProt P02768); assay: Binding affinity to human serum albumin assessed as binding constant by Benesi-Hildebrand equation based analysis; assay type: ADME; conditions: isolated protein
Albumin [30] = molecular target: T1, Albumin; assay: Binding affinity to human serum albumin assessed as increase in compound corresponding new band formation at 344 nm at 0 to 18 uM by UV-Vis absorption spectroscopic analysis; assay type: ADME; conditions: isolated protein, dose 0-18 µM
Albumin [31] = molecular target: T1, Albumin; assay: Binding affinity to human serum albumin assessed as hyperchromic shift at 280 nm at 0 to 18 uM by UV-Vis absorption spectroscopic analysis; assay type: ADME; conditions: isolated protein, dose 0-18 µM
Albumin [32] = molecular target: T1, Albumin; assay: Binding affinity to human serum albumin assessed as quenching in emission band at 350 nm at 0 to 35 uM at 298 to 318K by fluorescence based analysis; assay type: ADME; conditions: isolated protein, dose 0-35 µM
Albumin [33] = molecular target: T1, Albumin; assay: Binding affinity to human serum albumin assessed as Stem-Volmer quenching constant at 298K by fluorescence based analysis; assay type: ADME; conditions: isolated protein
Albumin [34] = molecular target: T1, Albumin; assay: Binding affinity to human serum albumin assessed as quenching constant at 298K by fluorescence based analysis; assay type: ADME; conditions: isolated protein
Albumin [35] = molecular target: T1, Albumin; assay: Binding affinity to human serum albumin assessed as Stem-Volmer quenching constant at 308K by fluorescence based analysis; assay type: ADME; conditions: isolated protein
Albumin [36] = molecular target: T1, Albumin; assay: Binding affinity to human serum albumin assessed as Stem-Volmer quenching constant at 318K by fluorescence based analysis; assay type: ADME; conditions: isolated protein
Albumin [37] = molecular target: T1, Albumin; assay: Binding affinity to human serum albumin assessed as binding constant at 298K by fluorescence based analysis; assay type: ADME; conditions: isolated protein
Albumin [38] = molecular target: T1, Albumin; assay: Binding affinity to human serum albumin assessed as binding constant at 308K by fluorescence based analysis; assay type: ADME; conditions: isolated protein
Albumin [39] = molecular target: T1, Albumin; assay: Binding affinity to human serum albumin assessed as binding constant at 318K by fluorescence based analysis; assay type: ADME; conditions: isolated protein
Albumin [40] = molecular target: T1, Albumin; assay: Binding affinity to human serum albumin assessed as change in enthalpy by Van't Hoff plot analysis; assay type: ADME; conditions: isolated protein
Albumin [41] = molecular target: T1, Albumin; assay: Binding affinity to human serum albumin assessed as change in free energy at 298K by Van't Hoff plot analysis; assay type: ADME; conditions: isolated protein
Albumin [42] = molecular target: T1, Albumin; assay: Binding affinity to human serum albumin assessed as change in free energy at 308K by Van't Hoff plot analysis; assay type: ADME; conditions: isolated protein
Albumin [43] = molecular target: T1, Albumin; assay: Binding affinity to human serum albumin assessed as change in free energy at 318K by Van't Hoff plot analysis; assay type: ADME; conditions: isolated protein
Albumin [44] = molecular target: T1, Albumin; assay: Binding affinity to human serum albumin assessed as change in entropy by Van't Hoff plot analysis; assay type: ADME; conditions: isolated protein
Albumin [45] = molecular target: T1, Albumin; assay: Binding affinity to human serum albumin assessed as dynamic quenching by measuring decrease in decay time of HSA at 0 to 21 uM by time-resolved fluorescence analysis; assay type: ADME; conditions: isolated protein, dose 0-21 µM
Calf thymus DNA [46] = assay: Binding affinity to calf thymus DNA assessed as hypochromic shift in absorption band at 344 nm at 5 uM by UV-Vis absorption spectroscopy; assay type: nucleic-acid assay; conditions: Bos taurus
Calf thymus DNA [47] = assay: Binding affinity to calf thymus DNA by Benesi-Hildebrand equation based analysis; assay type: nucleic-acid assay; conditions: Bos taurus
Calf thymus DNA [48] = assay: Binding affinity to calf thymus DNA assessed as DNA intercalation by measuring increase in DNA melting temperature by thermal denaturation based analysis; assay type: nucleic-acid assay; conditions: Bos taurus
Calf thymus DNA [49] = assay: Binding affinity to calf thymus DNA assessed as Stern-Volmer quenching constant by fluorescence based analysis; assay type: nucleic-acid assay; conditions: Bos taurus
Calf thymus DNA [50] = assay: Binding affinity to calf thymus DNA assessed as quenching constant by fluorescence based analysis; assay type: nucleic-acid assay; conditions: Bos taurus
Calf thymus DNA [51] = assay: Binding affinity to calf thymus DNA assessed as binding constant by fluorescence based analysis; assay type: nucleic-acid assay; conditions: Bos taurus
Calf thymus DNA [52] = assay: Binding affinity to calf thymus DNA assessed as DNA intercalation by measuring quenching in emission band at 601 nm at 0 to 90 uM by ethidium bromide competitive displacement assay; assay type: nucleic-acid assay; conditions: Bos taurus; dose 0-90 µM
Enterococcus faecalis [53] = assay: Potency index, ratio of amoxicillin MIC to test compound MIC for antibacterial activity against Enterococcus faecalis; assay type: functional
Enterococcus faecalis [54] = assay: Potency index, ratio of chloromycin MIC to test compound MIC for antibacterial activity against Enterococcus faecalis; assay type: functional

T1 sequence (P02768 whole entry): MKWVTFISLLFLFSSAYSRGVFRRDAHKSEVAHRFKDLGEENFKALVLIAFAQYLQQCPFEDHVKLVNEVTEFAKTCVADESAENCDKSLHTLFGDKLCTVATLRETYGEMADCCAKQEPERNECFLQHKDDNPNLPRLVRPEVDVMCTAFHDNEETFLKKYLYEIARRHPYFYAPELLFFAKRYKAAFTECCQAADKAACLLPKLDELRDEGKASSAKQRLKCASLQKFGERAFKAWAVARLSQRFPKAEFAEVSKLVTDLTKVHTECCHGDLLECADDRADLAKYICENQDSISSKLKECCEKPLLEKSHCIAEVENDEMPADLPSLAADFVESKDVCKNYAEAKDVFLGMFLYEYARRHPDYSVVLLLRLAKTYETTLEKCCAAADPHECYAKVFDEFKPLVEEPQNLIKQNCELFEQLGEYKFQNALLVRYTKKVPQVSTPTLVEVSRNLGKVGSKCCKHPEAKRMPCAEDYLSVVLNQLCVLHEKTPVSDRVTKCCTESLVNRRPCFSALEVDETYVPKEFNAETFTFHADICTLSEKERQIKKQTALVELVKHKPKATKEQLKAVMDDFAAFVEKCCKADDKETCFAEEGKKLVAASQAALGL

O=C1c2cccc3cccc(c23)C(=O)N1Nc1nc(NCc2ccccc2)nc(N2CCOCC2)n1
MIC (Enterococcus faecalis [1]): 0.003 µg/mL (≈ 0.00623 µM)
MIC (Bacillus subtilis): 3.12 µg/mL (≈ 6.49 µM)
MIC (Listeria): 6.25 µg/mL (≈ 13 µM)
MIC (Staphylococcus aureus [2]): 1.56 µg/mL (≈ 3.24 µM)
MIC (Escherichia coli): 100 µg/mL (≈ 208 µM)
MIC (Salmonella enterica): 200 µg/mL (≈ 415 µM)
MIC [3]: 200 µg/mL (≈ 415 µM)
MIC (Serratia marcescens): 100 µg/mL (≈ 208 µM)
MBC (Enterococcus faecalis [4]): 0.19 µg/mL (≈ 0.395 µM)
MBC (Staphylococcus aureus [5]): 3.25 µg/mL (≈ 6.75 µM)
Ratio (Enterococcus faecalis [6]): >=32
Ratio (Staphylococcus aureus [7]): 2
Activity (Staphylococcus aureus [8]): Active
Activity (Staphylococcus aureus [9]): Active
Activity (Staphylococcus aureus [10]): Active
Activity (Staphylococcus aureus [11]): Active
inhibition (INH) (Staphylococcus aureus [12]): 60%
inhibition (INH) (Staphylococcus aureus [13]): 30%
inhibition (INH) (Staphylococcus aureus [14]): 10%
inhibition (INH) (Staphylococcus aureus [15]): 5%
Activity (Cell membrane [16]): Dose-Dependent Effect
Activity (Cell membrane [17]): Tde
Activity (Cell membrane [18]): Dose-Dependent Effect
Activity (Cell membrane [19]): Tde
Activity (Cell membrane [20]): Active
Activity (Cell membrane [21]): Active
Activity (Cell membrane [22]): Active
Activity (Cell membrane [23]): Active
Activity (HEK293 [24]): 13.4%
Activity (HEK293 [25]): 12.2%
Activity (HEK293 [26]): 11.8%
Activity (HEK293 [27]): 10.5%
Activity (HEK293 [28]): 9.01%
Kb (Albumin [29]): 1.32 10^5/M
Activity (Albumin [30]): Active
Activity (Albumin [31]): Active
Activity (Albumin [32]): Active
KSV (Albumin [33]): 1.63 10^5/M
Kq (Albumin [34]): 1.63 10^13/M
KSV (Albumin [35]): 1.18 10^5/M
KSV (Albumin [36]): 1.13 10^5/M
Kb (Albumin [37]): 11.01 10^4/M
Kb (Albumin [38]): 6.61 10^4/M
Kb (Albumin [39]): 4.41 10^4/M
deltaH (Albumin [40]): -2.06 kcal/mol
deltaG (Albumin [41]): -1.64 kcal/mol
deltaG (Albumin [42]): -1.62 kcal/mol
deltaG (Albumin [43]): -1.61 kcal/mol
deltaS (Albumin [44]): -5.88 J/mol.K
Activity (Albumin [45]): Active
Activity (Calf thymus DNA [46]): Active
Kb (Calf thymus DNA [47]): 5.99 10^4/M
ΔTm (Calf thymus DNA [48]): 12.8 °C
KSV (Calf thymus DNA [49]): 1.22 10^4/M
Kq (Calf thymus DNA [50]): 1.22 10^12/M/s
Kb (Calf thymus DNA [51]): 8.26 10^4/M
Activity (Calf thymus DNA [52]): Active

CCCCNc1nc(NN2C(=O)c3cccc4cccc(c34)C2=O)nc(N2CCOCC2)n1
MIC (Enterococcus faecalis [1]): 0.09 µg/mL (≈ 0.201 µM)
MIC (Bacillus subtilis): 25 µg/mL (≈ 55.9 µM)
MIC (Listeria): 200 µg/mL (≈ 447 µM)
MIC (Staphylococcus aureus [2]): 12.5 µg/mL (≈ 27.9 µM)
MIC (Escherichia coli): 400 µg/mL (≈ 894 µM)
MIC (Salmonella enterica): 100 µg/mL (≈ 223 µM)
MIC [3]: 200 µg/mL (≈ 447 µM)
MIC (Serratia marcescens): 200 µg/mL (≈ 447 µM)
Ratio (Enterococcus faecalis [53]): 17
Ratio (Enterococcus faecalis [54]): 34
